Assay results reported in ChEMBL document CHEMBL6071205, “A New Frontier in Targeted Therapies: Harnessing PROTACs and Advanced Delivery Systems” (ACS Med Chem Lett, 2024).

The compounds below were run against von Hippel-Lindau disease tumor suppressor/GTPase KRas (Homo sapiens, UniProt P01116+P40337, G12D) (assay: PROTAC activity at VHL/KRAS G12D mutant in human ASPC1 cells assessed as induction of protein degradation incubated for 24 hrs by HiBiT based Nano-Glo luminescence assay).
Type: cell-based

Chain of von Hippel-Lindau disease tumor suppressor/GTPase KRas (P01116 whole entry G12D, stated change not applied): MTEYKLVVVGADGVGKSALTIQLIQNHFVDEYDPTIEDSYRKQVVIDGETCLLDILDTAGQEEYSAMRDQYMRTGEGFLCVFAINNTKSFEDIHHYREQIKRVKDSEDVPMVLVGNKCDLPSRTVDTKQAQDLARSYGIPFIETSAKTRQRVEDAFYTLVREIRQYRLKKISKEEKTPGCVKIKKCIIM
Chain of von Hippel-Lindau disease tumor suppressor/GTPase KRas (P40337 whole entry, stated change not applied): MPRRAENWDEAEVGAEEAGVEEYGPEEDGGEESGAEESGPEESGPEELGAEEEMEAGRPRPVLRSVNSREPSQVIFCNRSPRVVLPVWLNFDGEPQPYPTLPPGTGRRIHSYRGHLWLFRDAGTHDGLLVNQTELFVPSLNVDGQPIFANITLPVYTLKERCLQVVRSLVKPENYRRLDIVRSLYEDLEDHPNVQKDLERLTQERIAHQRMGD

Compound	DC50 [µM]
C#Cc1c(F)ccc2cc(O)cc(-c3ncc4c(N5CC6CCC(C5)N6)nc(OC[C@@]56CCCN5[C@H](COC(=O)N5CCC(OCc7ccc8c(c7)n(C)c(=O)n8C7CCC(=O)NC7=O)CC5)CC6)nc4c3F)c12 (some centres not stated)	≥ 0.1
C#Cc1c(F)ccc2cccc(-c3ncc4c(N5CC6CCC(C5)N6)nc(OC[C@@]56CCCN5[C@H](COC(=O)N5CCC(OCCCc7ccc8c(c7)n(C)c(=O)n8C7CCC(=O)NC7=O)CC5)CC6)nc4c3F)c12 (some centres not stated)	≤ 0.1
C#Cc1c(F)ccc2cccc(-c3ncc4c(N5CC6CCC(C5)N6)nc(OC[C@@]56CCCN5[C@H](COC(=O)N5CCC(OCCC#Cc7ccc8c(c7)n(C)c(=O)n8C7CCC(=O)NC7=O)CC5)CC6)nc4c3F)c12 (some centres not stated)	≤ 0.1
C#Cc1c(F)ccc2cccc(-c3ncc4c(N5CC6CCC(C5)N6)nc(OC[C@@]56CCCN5[C@H](COC(=O)N5CCC(CN7CCC(c8ccc9c(c8)n(C)c(=O)n9C8CCC(=O)NC8=O)CC7)CC5)CC6)nc4c3F)c12 (some centres not stated)	≤ 0.1
C#Cc1c(F)ccc2cccc(-c3ncc4c(N5CC6CCC(C5)N6)nc(OC[C@@]56CCCN5[C@H](COC(=O)N5CCC7(CCC(CCc8ccc9c(c8)n(C)c(=O)n9C8CCC(=O)NC8=O)CC7)CC5)CC6)nc4c3F)c12 (some centres not stated)	≥ 0.1
C#Cc1c(F)ccc2cccc(-c3ncc4c(N5CC6CCC(C5)N6)nc(OC[C@@]56CCCN5[C@H](COC(=O)N5CCC(CC7CCN(Cc8ccc9c(c8)n(C)c(=O)n9C8CCC(=O)NC8=O)CC7)CC5)CC6)nc4c3F)c12 (some centres not stated)	≤ 0.1
C#Cc1c(F)ccc2cccc(-c3ncc4c(N5CC6CCC(C5)N6)nc(OC[C@@]56CCCN5[C@H](COC(=O)N5CC(CN7CCN(c8ccc9c(c8)n(C)c(=O)n9C8CCC(=O)NC8=O)CC7)C5)CC6)nc4c3F)c12 (some centres not stated)	≤ 0.1
C#Cc1c(F)ccc2cccc(-c3ncc4c(N5CC6CCC(C5)N6)nc(OC[C@@]56CCCN5[C@H](COC(=O)N5CCC(OC7CN(Cc8ccc9c(c8)n(C)c(=O)n9C8CCC(=O)NC8=O)C7)CC5)CC6)nc4c3F)c12 (some centres not stated)	≤ 0.1
C#Cc1c(F)ccc2cc(O)cc(-c3ncc4c(N5CC6CCC(C5)N6)nc(OC[C@@]56CCCN5[C@H](COC(=O)N5CCC(OCCCc7ccc8c(c7)n(C)c(=O)n8C7CCC(=O)NC7=O)CC5)CC6)nc4c3F)c12 (some centres not stated)	≤ 0.1
C#Cc1c(F)ccc2cccc(-c3ncc4c(N5CC6CCC(C5)N6)nc(OC[C@@]56CCCN5[C@H](COC(=O)N5CCC(OCCCCCCc7ccc8c(c7)n(C)c(=O)n8C7CCC(=O)NC7=O)CC5)CC6)nc4c3F)c12 (some centres not stated)	≤ 0.1
C#Cc1c(F)ccc2cccc(-c3ncc4c(N5CC6CCC(C5)N6)nc(OC[C@@]56CCCN5[C@H](COC(=O)N5CCC(OC7CCN(Cc8ccc9c(c8)n(C)c(=O)n9C8CCC(=O)NC8=O)CC7)CC5)CC6)nc4c3F)c12 (some centres not stated)	≤ 0.1
C#Cc1c(F)ccc2cccc(-c3ncc4c(N5CC6CCC(C5)N6)nc(OC[C@@]56CCCN5[C@H](COC(=O)N5CCN(C7CCN(Cc8ccc9c(c8)n(C)c(=O)n9C8CCC(=O)NC8=O)CC7)CC5)CC6)nc4c3F)c12 (some centres not stated)	≤ 0.1
